The source of these data is publication PMC8779255, “Determining the Anticancer Activity of Sphingosine Kinase Inhibitors Containing Heteroatoms in Their Tail Structure” (Pharmaceutics, 2022).

The target in one data set is T1, PP2A in HCT116 cells (Homo sapiens, UniProt P67775).
T1 construct: endogenous in cells; host or cells: HCT116
The data set can be described thus: PP2A activity assay (immunoprecipitation kit). Conditions: HCT116, 24 h, 20 µM of compounds 10, 11 and 13; vs nontreated control cells. Type of data set: cell-based. Here is the method: The activity of PP2A was measured by using the PP2A kit according to the manufacturer’s instruction. The cell lysate was incubated with anti PP2A, C subunit antibody, and protein A agarose slurry for 2 h at 4 °C. The phosphopeptide solution (60 µL) was mixed and incubated at 30 °C for 10 min in a shaker. After a brief centrifuge, a 25 µL sample was liquated in ½ volume microplate and 100 µL malachite green phosphate detection working solution was added. After color development, absorbance was taken at 650 nm in a Multiskan GO microplate reader. A phosphate standard curve was constructed using phosphate standard, and results were calculated using this standard curve. This experiment was repeated three times (n = 6).

Another data set concerns the target CYP2D6 (Homo sapiens, UniProt P10635). Put plainly: Inhibition of CYP enzymes activity, human liver microsomes. Conditions: human liver microsomes 0.25 mg/mL, 10 μM, dextromethorphan substrate. In general terms: Microsomes from liver hold many membrane-bound enzymes, among them those of drug oxidation.
Data set [1] can be described thus: In vitro metabolic stability in liver microsomes. The format is in vitro ADME, mouse.
The target of a further data set is CYP2C19 (Homo sapiens, UniProt P33261). The data set can be described thus: Inhibition of CYP enzymes activity, human liver microsomes. Conditions: human liver microsomes 0.25 mg/mL, 10 μM, S-mephenytoin substrate.
CYP2C19, sequence (P33261 whole entry): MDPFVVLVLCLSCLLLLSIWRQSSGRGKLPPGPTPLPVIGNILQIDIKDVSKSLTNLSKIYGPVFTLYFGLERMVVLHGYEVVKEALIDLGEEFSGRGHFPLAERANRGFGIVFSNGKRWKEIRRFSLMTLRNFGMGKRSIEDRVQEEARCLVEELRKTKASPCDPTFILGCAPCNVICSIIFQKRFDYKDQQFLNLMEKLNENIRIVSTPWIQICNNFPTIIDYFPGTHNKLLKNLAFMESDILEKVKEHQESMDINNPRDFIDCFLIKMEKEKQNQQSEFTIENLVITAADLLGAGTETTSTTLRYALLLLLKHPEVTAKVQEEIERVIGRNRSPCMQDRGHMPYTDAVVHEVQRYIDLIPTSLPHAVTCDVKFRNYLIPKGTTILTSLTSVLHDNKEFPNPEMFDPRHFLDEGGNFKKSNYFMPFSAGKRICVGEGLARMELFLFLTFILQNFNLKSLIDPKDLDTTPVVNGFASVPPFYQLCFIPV
The subject of data set [2] is sphingosine in HCT116 cells. The data set can be described thus: Sphingosine ELISA of cell lysate. Type of data set: cell-based, human. Conditions: 24 h, vs nontreated control. The method, then: (§1) The cellular levels of S1P, sphingosine, and ceramide were detected using an ELISA assay kit (MyBioSource, Inc., San Diego, CA, USA) according to the manufacturer’s instruction. For S1P ELISA, 100 µL cell lysates or standards were added in pre-coated ELISA wells, incubated for 90 min at 37 °C, and treated with 1x biotinylated anti S1P antibody for 1 h. Following treatment of HRP conjugated secondary antibody, the substrate was added and allowed to change the color for 15 min; then, the stop solution was added and absorbance was measured at 450 nm using a Multiskan GO (Thermo Scientific, Waltham, MA, USA) microplate spectrophotometer. […] A stop solution (50 µL) was added to each well, and optical density was measured at 450 nm using a microplate reader. […] After incubation, 50 µL substrate A and B was added to the plate and incubated at 37 °C for 20 min; a stop solution (50 µL) was added to each well and optical density was determined at 450 nm using a microplate reader. The concentration of S1P, sphingosine, and ceramide were calculated as ng/mL using respective standard curves constructed by Skanlt microplate reader software 5.0 (Thermo Scientific, Waltham, MA, USA).
For orientation: In an ELISA, binding on a coated surface is turned into a signal by an enzyme label.

In a further data set the target is T2, CYP3A4 (Homo sapiens, UniProt P08684).
T2 construct: Human liver microsomes (0.25 mg/mL); from tissue; host or cells: human liver microsomes
T2 sequence (P08684 whole entry): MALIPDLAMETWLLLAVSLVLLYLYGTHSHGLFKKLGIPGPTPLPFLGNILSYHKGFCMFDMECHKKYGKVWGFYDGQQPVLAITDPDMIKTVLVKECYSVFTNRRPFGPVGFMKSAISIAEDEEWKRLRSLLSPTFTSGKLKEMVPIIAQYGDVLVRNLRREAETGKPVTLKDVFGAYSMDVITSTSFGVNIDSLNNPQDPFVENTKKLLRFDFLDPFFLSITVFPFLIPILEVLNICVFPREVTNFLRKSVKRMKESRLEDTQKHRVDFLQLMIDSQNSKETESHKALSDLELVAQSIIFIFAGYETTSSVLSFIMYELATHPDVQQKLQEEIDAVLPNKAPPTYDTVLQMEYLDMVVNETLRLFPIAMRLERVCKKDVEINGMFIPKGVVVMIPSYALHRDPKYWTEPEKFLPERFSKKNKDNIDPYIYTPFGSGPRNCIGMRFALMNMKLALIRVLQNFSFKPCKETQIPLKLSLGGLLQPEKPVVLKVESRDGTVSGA
Put plainly: Inhibition of CYP enzymes activity, human liver microsomes. The format is in vitro ADME. Conditions: human liver microsomes 0.25 mg/mL, 10 μM, midazolam substrate.

Another data set relates to S1P in HCT116 cells. Put plainly: S1P ELISA of cell lysate. Type of data set: cell-based, human. Here is the method: as §1
The target of another data set is CYP2C9 (Homo sapiens, UniProt P11712). The data set can be described thus: Inhibition of CYP enzymes activity, human liver microsomes. Conditions: human liver microsomes 0.25 mg/mL, 10 μM, diclofenac substrate.
CYP2C9, sequence (P11712 whole entry): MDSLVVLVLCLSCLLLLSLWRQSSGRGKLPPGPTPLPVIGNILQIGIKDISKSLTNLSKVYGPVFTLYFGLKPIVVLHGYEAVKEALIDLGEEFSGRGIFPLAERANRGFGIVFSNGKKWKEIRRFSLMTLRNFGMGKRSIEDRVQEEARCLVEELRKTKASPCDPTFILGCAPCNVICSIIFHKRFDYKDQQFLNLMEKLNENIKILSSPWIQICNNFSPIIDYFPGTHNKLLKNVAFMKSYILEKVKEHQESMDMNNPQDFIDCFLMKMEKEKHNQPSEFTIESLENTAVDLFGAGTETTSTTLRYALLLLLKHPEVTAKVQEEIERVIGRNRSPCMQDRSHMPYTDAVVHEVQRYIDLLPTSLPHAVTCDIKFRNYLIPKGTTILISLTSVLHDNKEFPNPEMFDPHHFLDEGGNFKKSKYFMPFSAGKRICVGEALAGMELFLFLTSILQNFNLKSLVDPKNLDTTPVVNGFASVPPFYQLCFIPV
Data set [3] deals with HT29 cells. The data set can be described thus: Clonogenic (colony formation) assay. Conditions: HT29, 5, 10 and 20 μM. The format is cell-based, human. Here is the method: (§2) Cell proliferation was assayed by in vitro clonogenic assay. To perform the clonogenic assay, HT29 and HCT116 cells (1000 cells/well) were grown in 6-well plates for 24 h. Cells were treated with compound 10 and FTY720 in different concentrations for 12 h and changed fresh medium. Colonies were allowed to grow for two weeks by changing to a fresh medium every 3 days. Colonies were stained with 0.1% crystal violet prepared in 25% […] for 30 min and washed with running water and photographed with Canon Rebel T6i (Tokyo, Kanto, Japan). Colonies were counted using Image J software version 1.53i, National Institutes of Health, Bethesda, MD, USA). Plating efficiency (PE) and surviving fraction (SF) was calculated using the following formula. (1) [Plating efficiency (PE)]=Number of colony count in control/Number of cell seeded [Surviving Fraction]=Number of colony count /Number of cell seeded […]

Data set [4] has as its system HCT116 cells. Put plainly: Clonogenic (colony formation) assay. Type of data set: cell-based, human. Conditions: HCT116, 5, 10 and 20 μM. The method, then: as §2
The nature of data set [5]: In vitro metabolic stability in liver microsomes. Type of data set: in vitro ADME, rat.
Data set [6] relates to HT29 cells. Put plainly: Annexin V-FITC/PI staining, flow cytometry. The format is cell-based, human. Conditions: HT29, 10 and/or 20 µM, 24 h. Here is the method: (§3) After treating HT29 and HCT116 cells with compounds 10, 11, 13 and FTY720 according to the manufacturer’s instruction, the annexin V and PI staining technique was employed to determine apoptosis in the cells. Briefly, cells (2.5 × 10^5 cells/well) were seeded in 12-well plates and treated with 10 and/or 20 µM of compounds for 24 h. Cells were collected using trypsin-EDTA and stained with annexin V-FITC dye for 15 min at room temperature, followed by PI staining for 20 min and analyzed by flow cytometer (MACSQuant Analyzer 10; Miltenyi Biotec, Bergisch Gladbach, Germany). The data was analyzed using MACSQuantify^TM version 2.8 software (Miltenyi Biotec, Bergisch Gladbach, Germany) and presented as early apoptosis, late apoptosis, or combined apoptosis percentage. Each experiment was repeated three times independently (n = 6).

For data set [7], the system named is HCT116 cells. Put plainly: Annexin V-FITC/PI staining, flow cytometry. Type of data set: cell-based, human. Conditions: HCT116, 10 and/or 20 µM, 24 h. Here is the method:
as §3

Where [8] appears, read: % remaining after 30 min, NADPH.

T1 sequence (P67775 whole entry): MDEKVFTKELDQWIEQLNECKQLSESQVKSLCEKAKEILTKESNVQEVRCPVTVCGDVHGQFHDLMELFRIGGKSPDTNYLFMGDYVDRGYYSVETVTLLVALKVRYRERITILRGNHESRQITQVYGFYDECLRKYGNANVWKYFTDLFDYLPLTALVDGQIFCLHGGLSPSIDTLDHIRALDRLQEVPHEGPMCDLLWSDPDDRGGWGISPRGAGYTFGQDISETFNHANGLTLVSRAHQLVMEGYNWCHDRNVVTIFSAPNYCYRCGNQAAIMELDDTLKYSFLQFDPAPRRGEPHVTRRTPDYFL
CYP2D6, sequence (P10635 whole entry): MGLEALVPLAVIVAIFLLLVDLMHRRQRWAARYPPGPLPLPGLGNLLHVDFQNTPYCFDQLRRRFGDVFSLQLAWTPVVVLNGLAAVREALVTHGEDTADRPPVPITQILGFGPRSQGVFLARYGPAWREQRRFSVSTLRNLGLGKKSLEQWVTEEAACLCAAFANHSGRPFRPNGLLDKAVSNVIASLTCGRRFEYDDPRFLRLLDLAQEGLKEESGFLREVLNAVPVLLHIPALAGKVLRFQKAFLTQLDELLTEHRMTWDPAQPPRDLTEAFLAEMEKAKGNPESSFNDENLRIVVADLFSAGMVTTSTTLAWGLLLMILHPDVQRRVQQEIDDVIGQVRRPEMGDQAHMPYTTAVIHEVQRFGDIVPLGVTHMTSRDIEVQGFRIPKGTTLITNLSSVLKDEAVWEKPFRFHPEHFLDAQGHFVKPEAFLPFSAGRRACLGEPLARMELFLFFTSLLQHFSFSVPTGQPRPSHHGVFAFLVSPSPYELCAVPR
Procedure for CYP2C19: (§4) By simultaneously analyzing metabolites, the ability of the six compounds to inhibit drug metabolism enzymes was evaluated.
(§5) Metabolites of each CYP coenzyme indicator drug generated through the above reaction were analyzed using the Shimadzu Nexera XR system and TSQ vantage (Thermo). The HPLC column was a Kinetex C18 column (2.1 × 100 mm^2, 2.6 μm particle size; Phenomenex, Torrance, CA, USA), and the mobile phase was distilled water (A) containing 0.1% formic acid and acetonitrile (B) containing 0.1% formic acid. […] The generated metabolites were quantified using MRM (Multiple Reaction Monitoring) quantification modes, and data were analyzed using Xcalibur (version 1.6.1).
Procedure for CYP2C9: as §4, §5
Procedure for CYP2D6: Afterward, to terminate the reaction, an acetonitrile solution containing an internal standard (terfenadine) was added, centrifuged for 5 min (14,000 rpm, 4 °C), and the supernatant was injected into the LC-MS/MS system. By simultaneously analyzing metabolites, the ability of the six compounds to inhibit drug metabolism enzymes was evaluated.
as §5
Procedure for CYP3A4: as §4, §5

`CCCCCCCOc1ccc(CCN2CCN(CCO)CC2)cc1` [Compound 10, 2-(4-(4-(Heptyloxy)phenethyl)piperazin-1-yl)ethanol]: on PP2A in HCT116 cells, the PP2A activity increase stood at 1.73 fold. Also, the “CYP2D6 activity (% of control activity)” value at CYP2D6 is 87.4%. In data set [1] (setting [8]), the “liver microsomal stability, Mouse (%)” value came out at 44.7%. Further, the “liver microsomal stability (in words)” value in data set [1] (mouse) and in data set [5] (rat) was “unstable” each time. Further, at CYP2C19, the “CYP2C19 activity (% of control activity)” value stood at 96.5%. For the same compound, the sphingosine level increase in data set [2] (HCT116, 10 µM) was found to be 1.42 fold; in data set [2] (HCT116, 20 µM), 1.74 fold. Also, the “CYP3A4 activity (% of control activity)” value on CYP3A4 is listed as above 100%. This compound also yielded an S1P level decrease with S1P in HCT116 cells of 42%. In addition, the S1P level result in the data set on S1P in HCT116 cells (HCT116, 10 and 20 µM, 24 h, vs nontreated control) is on record as “significantly reduces”. Further, the “CYP2C9 activity (% of control activity)” value at CYP2C9 was above 100%. Besides, the colony formation capacity result in the data set with HT29 cells [3] and with HCT116 cells [4] was “effectively inhibits the colony formation capacity” each time. For the same compound, in [5] (setting [8]), the “liver microsomal stability, Rat (%)” value was found to be 10.2%. Besides, the “apoptosis (annexin V assay)” value with HT29 cells [6] and with HCT116 cells [7] was “induced apoptosis” each time.
